Molecular target: T1, CXCR3 (Homo sapiens, UniProt P49682)
T1 construct: expressed in transfected cells
T1 sequence (P49682 1-368): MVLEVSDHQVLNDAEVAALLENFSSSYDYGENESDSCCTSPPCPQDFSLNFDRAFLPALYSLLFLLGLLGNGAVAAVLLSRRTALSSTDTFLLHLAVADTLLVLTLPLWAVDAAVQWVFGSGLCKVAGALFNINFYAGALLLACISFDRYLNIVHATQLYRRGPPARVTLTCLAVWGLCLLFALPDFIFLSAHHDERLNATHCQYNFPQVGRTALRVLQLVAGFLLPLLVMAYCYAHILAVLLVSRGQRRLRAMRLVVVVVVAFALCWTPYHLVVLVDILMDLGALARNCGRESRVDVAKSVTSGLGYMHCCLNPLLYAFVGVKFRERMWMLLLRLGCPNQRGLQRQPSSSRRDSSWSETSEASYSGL
Assay: CXCR3/IP-10 radioligand binding (125I-IP-10 competition, CXCR3.L1/2 cell membranes)
Settings: test compound 10 μmol/L, 125I-labeled IP-10 binding to CXCR3.L1/2 transfectant cell membrane
Description: The activity of the compounds of the present invention can be assessed using a suitable assay, such as a receptor binding assay, a chemotaxis assays, an extracellular acidification assay or a calcium flux assay (see, for example, Hesselgesser et al., J. Biol. Chem. 273(25):15687-15692 (1998) and WO 98/02151). For example, as described herein, small organic molecule antagonists of CXCR3/IP-10 binding have been identified utilizing cells engineered to express recombinant human CXCR3 (CXCR3.L1/2) and which bind ^125I-IP-10 and chemotax in response to IP-10, Mig or I-TAC. Specifically, a high through-put receptor binding assay, which monitors ^125I-IP-10 binding to CXCR3.L1/2 cell membranes, was used to identify small molecule antagonists which block binding of IP-10, Mig or I-TAC to CXCR3.
CXCR3.L1/2 cells were pelleted by centrifugation and stored at −80° C. The cells were lysed by thawing and resuspending at about 1.5×10^7 cells/ml in a hypotonic buffer (5 m mol/L HEPES (pH 7.2), 2 mmol/L EDTA, 10 μg/ml each leupeptin, aprotinin, and chymostatin, and 100 μg/ml PMSF (all from Sigma, St. Louis)). Nuclei and cellular debris was removed by centrifugation ([…], at 4° C.) for 10 min. The supematant was transferred to chilled centrifuge tubes (Nalge, Rochester, N.Y.) and the membrane fraction was recovered by centrifugation (25,000 g at 4° C.) for 45 min. The membrane pellet was resuspended in freezing buffer (10 mM HEPES (pH 7.2), 300 mmol/L Sucrose, 5 μg/ml each of leupeptin, aprotinin, and chymostatin, and 10 μg/ml PMSF). The total protein concentration was determined using a coomassie blue staining protein concentration assay kit (BioRad). The membrane preparation was aliquoted and stored at −80° C. until time of use.
CXCR3/IP-10 binding was performed in 96-well polypropylene plates (Costar) in a final volume of 0.1 ml of HBB buffer (50 mmol/L Hepes pH 7.4, 1 mmol/L CaCl2, 5 mmol/L MgCl2, 0.02% sodium azide, 0.5% BSA (bovine serum albumin)) containing 1 to 5 μg of CXCR3.L1/2 transfectant cell membrane protein and 0.05 to 0.2 nmol/L ^125I-labeled IP-10 (NEN, Boston, Mass.). Competition binding experiments were performed by including variable concentrations of unlabeled IP-10 or test compound. Nonspecific binding was determined following the addition of a 250 nmol/L unlabelled IP-10. Samples were incubated for 60 min at room temperature, and bound and free tracer (^125I-IP10) were separated by filtration through 96-well GF/B filterplates (Packard) presoaked in 0.3% polyethyleneimine. The filters were washed in HBB further supplemented with 0.5 mol/L NaCl, dried, and the amount of bound radioactivity determined by liquid scintillation counting. The competition is presented as the percent specific binding as calculated by 100×[(S-B)/(T-B)], where S is the radioactivity bound for each sample, B is background binding, and T is total bound in the absence of competitors. Duplicates were used throughout the experiments.

| Molecule | % inhibition at 10 μmol/L (Table 5) [%] | also measured |
| --- | --- | --- |
| 1-[2-{N-Ethyl-N-(4-N,N-dimethylaminomethylbenzyl)amino}ethyl]-3-(1-naphthylmethyl)-2-imidazolidinylidenepropanedinitrile [Compound 9] | 94 | – |
| CCN(CCN1CCN(Cc2cccc3ccccc23)C1=C(C#N)C#N)Cc1ccc(CN2CCCCC2)cc1 [Compound 2, 1-[2-{N-Ethyl-N-(4-piperidinomethylbenzyl)amino}ethyl]-3-(1-naphthylmethyl)-2-imidazolidinylidenepropanedinitrile] | 96 | – |
| CCN(CCN1CCN(Cc2cccc3ccccc23)C1=C(C#N)C#N)Cc1ccc(OCCN2CCCC2)cc1 [Compound 4, 1-[2-{N-Ethyl-N-{4-(2-(1-pyrrolidinyl)ethoxy)benzyl}amino}ethyl]-3-(1-naphthylmethyl)-2-imidazolidinylidenepropanedinitrile] | 76 | – |
| CN(CCN1CCN(Cc2cccc3ccccc23)C1=C(C#N)C#N)Cc1ccc(CN2CCCCC2)cc1 [Compound 5, 1-[2-{N-Methyl-N-(4-piperidinomethylbenzyl)amino}ethyl]-3-(1-naphthylmethyl)-2-imidazolidinylidenepropanedinitrile] | 99 | – |
| CN(CCN1CCN(Cc2cccc3ccccc23)C1=C(C#N)C#N)Cc1cccc(CN2CCCCC2)c1 [Compound 6, 1-[2-{N-Methyl-N-(3-piperidinomethylbenzyl)amino}ethyl]-3-(1-naphthylmethyl)-2-imidazolidinylidenepropanedinitrile] | 99 | – |
| CCN(CCN1CCN(Cc2cccc3ccccc23)C1=C(C#N)C#N)Cc1ccc(CN2CCOCC2)cc1 [Compound 7, 1-[2-{N-Ethyl-N-(4-morpholinomethylbenzyl)amino}ethyl]-3-(1-naphthylmethyl)-2-imidazolidinylidenepropanedinitrile] | 92 | – |
| CCN(CCN1CCN(Cc2cccc3ccccc23)C1=C(C#N)C#N)Cc1ccc(CN2CCN(C)CC2)cc1 [Compound 8, 1-[2-{N-Ethyl-N-(4-(4-methylpiperazinyl)methylbenzyl)amino}ethyl]-3-(1-naphthylmethyl)-2-imidazolidinylidenepropanedinitrile] | 86 | – |
| CCCNCc1ccc(CN(CC)CCN2CCN(Cc3cccc4ccccc34)C2=C(C#N)C#N)cc1 [Compound 10, 1-[2-{N-Ethyl-N-(4-(N-propylamino)methylbenzyl)amino}ethyl]-3-(1-naphthylmethyl)-2-imidazolidinylidenepropanedinitrile] | 100 | – |
| CCN(CCN1CCN(Cc2cccc3ccccc23)C1=C(C#N)C#N)Cc1ccc(CN2CCN(CCO)CC2)cc1 [Compound 11, 1-[2-{N-Ethyl-(4-(4-(2-hydroxyethyl)piperazinyl)methylbenzyl)amino}ethyl]-3-(1-naphthylmethyl)-2-imidazolidinylidenepropanedinitrile] | 91 | – |
| CC(=O)N(CCN1CCN(Cc2cccc3ccccc23)C1=C(C#N)C#N)Cc1cccc(CN2CCCCC2)c1 [Compound 12, 1-[2-{N-Acetyl-N-(3-piperidinomethylbenzyl)amino}ethyl]-3-(1-naphthylmethyl)-2-imidazolidinylidenepropanedinitrile] | 76 | – |
| N#CC(C#N)=C1N(CCN(Cc2cccc(CN3CCCCC3)c2)C(=O)c2ccccc2)CCN1Cc1cccc2ccccc12 [Compound 13, 1-[2-{N-Benzoyl-N-(3-piperidinomethylbenzyl)amino}ethyl]-3-(1-naphthylmethyl)-2-imidazolidinylidenepropanedinitrile] | 61 | – |
| N#CC(C#N)=C1N(CCN(Cc2cccc(CN3CCCCC3)c2)C(=O)c2ccco2)CCN1Cc1cccc2ccccc12 [Compound 14, 1-[2-{N-Furoyl-N-(3-piperidinomethylbenzyl)amino}ethyl]-3-(1-naphthylmethyl)-2-imidazolidinylidenepropanedinitrile] | 85 | – |
| N#CC(C#N)=C1N(CCN(Cc2cccc(CN3CCCCC3)c2)C(=O)c2cccs2)CCN1Cc1cccc2ccccc12 [Compound 15, 1-[2-{N-(2-Thiophenecarbonyl)-N-(3-piperidinomethylbenzyl)amino}ethyl]-3-(1-naphthylmethyl)-2-imidazolidinylidenepropanedinitrile] | 71 | – |
| CS(=O)(=O)N(CCN1CCN(Cc2cccc3ccccc23)C1=C(C#N)C#N)Cc1cccc(CN2CCCCC2)c1 [Compound 16, 1-[2-{N-Methanesulfonyl-N-(3-piperidinomethylbenzyl)amino}ethyl]-3-(1-naphthylmethyl)-2-imidazolidinylidenepropanedinitrile] | 89 | – |
| CCN(CCN1CCN(Cc2cccc3ccccc23)C1=C(C#N)C#N)Cc1cccc(CN2CCCCC2)c1 [Compound 17, 1-[2-{N-Ethyl-N-(3-piperidinomethylbenzyl)amino}ethyl]-3-(1-naphthylmethyl)-2-imidazolidinylidenepropanedinitrile] | – | inhibition at 10 µM (Table 5): 96% |
| N#CC(C#N)=C1N(CCN(Cc2ccccc2)Cc2cccc(CN3CCCCC3)c2)CCN1Cc1cccc2ccccc12 [Compound 18, 1-[2-{N-Benzyl-N-(3-piperidinomethylbenzyl)amino}ethyl]-3-(1-naphthylmethyl)-2-imidazolidinylidenepropanedinitrile] | 67 | – |
| N#CC(C#N)=C1N(CCN(Cc2cccc(CN3CCCCC3)c2)Cc2cccc(CN3CCCCC3)c2)CCN1Cc1cccc2ccccc12 [Compound 19, 1-[2-{N,N-Bis(3-piperidinomethylbenzyl)amino}ethyl]-3-(1-naphthylmethyl)-2-imidazolidinylidenepropanedinitrile] | 68 | – |
| N#CC(C#N)=C1N(CCCNCc2ccc(CN3CCCCC3)cc2)CCN1Cc1cccc2ccccc12 [Compound 20, 1-[2-{N-(4-(1-Piperidinomethyl)benzyl)amino}propyl]-3-(1-naphthylmethyl)-2-imidazolidinylidenepropanedinitrile] | – | inhibition at 10 µM (Table 5): 74% |
| CCCNCc1ccc(CN(CC)CCN2CCN(Cc3cc(C)cc(C)c3)C2=C(C#N)C#N)cc1 [Compound 21, 1-[2-{N-Ethyl-N-(4-(1-propylaminomethyl)benzyl)amino}ethyl]-3-(3,5-dimethylbenzyl)-2-imidazolidinylidenepropanedinitrile] | – | inhibition at 10 µM (Table 5): 99% |
| CCCNCc1ccc(CNCCN2CCN(Cc3cc(C)cc(C)c3)C2=C(C#N)C#N)cc1 [Compound 22, 1-[2-{N-(4-(1-Propylaminomethyl)benzyl)amino}ethyl]-3-(3,5-dimethylbenzyl)-2-imidazolidinylidenepropanedinitrile] | – | inhibition at 10 µM (Table 6): 92% |
| CCN(CCN1CCN(Cc2cc(C)cc(C)c2)C1=C(C#N)C#N)Cc1ccc(CN2CCCCC2)cc1 [Compound 23, 1-[2-{N-Ethyl-N-(4-(1-piperidinomethyl)benzyl)amino}ethyl]-3-(3,5-dimethylbenzyl)-2-imidazolidinylidenepropanedinitrile] | – | inhibition at 10 µM (Table 6): 97% |
| CCN(CCN1CCN(Cc2cc(Cl)cc(Cl)c2)C1=C(C#N)C#N)Cc1ccc(CN2CCCCC2)cc1 [Compound 24, 1-[2-{N-Ethyl-N-(4-(1-piperidinomethyl)benzyl)amino}ethyl]-3-(3,5-dichlorobenzyl)-2-imidazolidinylidenepropanedinitrile] | – | inhibition at 10 µM (Table 6): 91% |

— patent US6469002B1, “Imidazolidine compounds” (Millennium Pharmaceuticals, Inc., priority 2001, dated 2002)
